Experimental data reported in patent US6291676A, “Water-soluble derivatives of camptothecin/homocamptothecin” (priority 2000, dated 2001).

Key:
Assay type in all cases: physicochemical
[1] = HPLC lactone stability in presence of DMPC SUV; details: for less lactone compared to the prior art monoamine (7AEC): DMPC
Method: (§1) To further study the differential interactions of CT-17 versus 7AEC with liposomal particles, high performance liquid chromatographic (HPLC) methods were employed to study drug stabilities in the absence and presence of membranes. In these experiments, small unilamellar vesicles (SUV) composed of dimyristoyl phosphatidylcholine (DMPC) were prepared by weighing out dry lipid powder (Avanti Polar Lipids) in a glass tube with screw cap top. The lipid was suspended in phosphate buffered saline, pH 7.4, at the concentration of 20 mg/ml and vortexed vigorously for 1 minute. The suspension was sonicated in a bath-type sonicator (Laboratory Supplies Co., Hicksville, N.Y.) for 2-4 hours until optically clear solution is obtained. […] A decrease in pH from 7.4 to 7.2 was observed. The pH of the SUV preparation was adjusted to 7.4 by the addition of 0.1 M potassium hydroxide. The sample was resonicated after pH adjustment until optically clear. Small unilamellar vesicles composed of dimyristoyl phosphatidylglycerol (DMPG) were also prepared by weighing out dry powder of the lipid (Avanti Polar Lipids) in a glass tube with screw-cap top and prepared as in the case of DMPC. The pH of the preparation decreased from 7.4 to 6.9 and was adjusted to 7.4 by the addition of 0.1 M KOH. The preparation was resonicated for 30 minutes until optically clear.
(§2) Stock solutions of 7-(1-Aminoethyl)camptothecin, a monoamine compound known in the prior art, and CT-17 as prepared in Example 18 were prepared by weighing out dry powder and dissolving in dimethylsulfoxide (DMSO) at a concentration of 2 mM. The SUV preparations from above were incubated at 37° C. in a water bath for 30 minutes. The two camptothecin drugs were added to the SUV preparations such that the final drug concentrations were 1 μM. The samples were incubated at 37° C. and aliquots were withdrawn at 1 hour and 3 hours and added to cold methanol (-20° C.) and immediately analyzed by reversed-phase HPLC using the conditions as follows. Analysis was performed using either Waters Alliance 2690 LC system equipped with temperature controlled autosampler or Waters LC system equipped with temperature controlled 717 plus Autosampler and 501 pumps. The detection was using either Waters 470 or 474 fluorescence detectors. Solvent A was 2% triethylammonium acetate, pH 5.5 and Solvent B was acetonitrile. The column used was Waters Symmetry C18, 5 μm (3.9×150 mm). The autosampler temperature was maintained at 4-5° C. The conditions used for analysis of 7-(1-Aminoethyl)camptothecin: Isocratic elution using 15% of solvent A and 85% of solvent B; detection using λcx =370 and λcm =440. […] The HPLC data was collected and analyzed using Waters Millenium chromatography manager.

[2] = Fluorescence anisotropy titration: association with negatively-charged DMPG vesicles
Method: Vesicle Preparation. Small unilamellar vesicle (SUV) suspensions were prepared the day of an experiment by the method of Burke et al. (T. G. Burke, A. K. Mishra, M. C. Wani, and M. E. Wall, Lipid Bilayer Partitioning and Stability of Camptothecin Drugs, Biochem., 32(20), 5352 (1993)). Briefly, stock lipid suspensions containing 200 mg/mL lipid in phosphate buffered saline (PBS, pH 7.4) were prepared by Vortex mixing for 5-10 min above the TM of the lipid. The lipid dispersions were then sonicated using a bath-type sonicator (Laboratory Supplies Co., Hicksville, N.Y.) for 3-4 h until they became optically clear. […] Each type of vesicle suspension was annealed for 30 min at 37° C. and then used in an experiment.
Fluorescence Instrumentation. Steady-state fluorescence measurements were obtained on a SLM Model 9850 spectrofluorometer with a thermostated cuvette compartment. This instrument was interfaced with an IBM PS/2 model 55 SX computer. Excitation and emission spectra were recorded with an excitation resolution of 8 nm and an emission resolution of 4 nm. In all cases spectra were corrected for background fluorescence and scatter from unlabeled lipids or from solvents by subtraction of the spectrum of a blank. Steady-state fluorescence intensity measurements were made in the absence of polarizers. Steady-state anisotropy (a) measurements were determined with the instrument in the "T-format" for simultaneous measurement of two polarized intensities. […] The anisotropy was calculated from a =(IVV -GIVH)/(IVV +2GIVH), where G=IHV /IHH and the subscripts refer to vertical and horizontal orientations of the excitation and emission polarizers, respectively.
Anisotropy measurements for camptothecins were conducted using exciting light in the range of 370 nm to 400 nm and long pass filters on each emission channel in order to isolate the drug's fluorescence signal from background scatter and/or residual fluorescence. […] The combination of exciting light and emission filters allowed us to adequately separate fluorescence from background signal. […]

[3] = HPLC lactone stability in presence of DMPG SUV; details: for less lactone compared to the prior art monoamine (7AEC): DMPG
Method: as §1, §2

SMILES: CC[C@@]1(O)C(=O)OCc2c1cc1n(c2=O)Cc2c-1nc1ccccc1c2CNN1CCN(C)CC1 [CT-17, 7-[N-(4-methyl-1-piperazino)aminomethyl]-(20S)-camptothecin]
- remaining at 1 h, 1 µM ([1]; DMPC SUV, PBS pH 7.4, 37° C, 1 hr, 1 μM drug, read-out: Percentage of Lactone, DMPC, 1 Hr): 34 ± 3%
- remaining at 3 h, 1 µM ([1]; DMPC SUV, PBS pH 7.4, 37° C, 3 hr, 1 μM drug, read-out: Percentage of Lactone, DMPC, 3 Hr): 19 ± 3%
- less lactone compared to the prior art monoamine (7AEC) ([1]; 1 hr): 20%
- less lactone compared to the prior art monoamine (7AEC) ([1]; 3 hr): 17%
- Overall association constant KDMPG ([2]; PBS buffer, pH 7.4, physiological temperature, DMPG): 800 M⁻¹
- reduction in membrane binding relative to 7AEC (negatively-charged membranes) ([2]; negatively-charged DMPG membranes): three-fold
- remaining at 1 h, 1 µM ([3]; DMPG SUV, PBS pH 7.4, 37° C, 1 hr, 1 μM drug, read-out: Percentage of Lactone, DMPG, 1 Hr): 87 ± 2%
- remaining at 3 h, 1 µM ([3]; DMPG SUV, PBS pH 7.4, 37° C, 3 hr, 1 μM drug, read-out: Percentage of Lactone, DMPG, 3 Hr): 78 ± 3%
- less lactone compared to the prior art monoamine (7AEC) ([3]; 1 hr): 6%
- less lactone compared to the prior art monoamine (7AEC) ([3]; 3 hr): 8%
